Reference: patent US10004718B2, “Erythropoietin expression promoter” (TOHOKU UNIVERSITY, priority 2012, dated 2018)

Assays:
Hep3B cells = test: Cytotoxicity, cell survival rate of Hep3B cells (Cell Counting Kit-8); type: cell-based, human
Description: The Hep3B cells were seeded at 1×10^4 cells/well to a 24-well cell culture plate and then cultured under normal oxygen (20% O2) for 24 hours. […] After further culture under normal oxygen (20% O2) for 24 hours, the number of live cells was measured using Cell Counting Kit-8 (manufactured by Dojindo Laboratories) to calculate the survival rate of the cells. Hep3B cells cultured in the absence of the compound (DMSO added [1%]) (“DMSO” of FIG. 9) and Hep3B cells cultured in the presence of HIF activators (DMOG [10 μM] and ciclopirox[10 μM]) (“DMOG” and “Ciclopirox”, respectively, of FIG. 9) were used as controls.

HIF-α = HIF-α concentration in Hep3B cells (Total HIF-1α Cell-Based ELISA); design: species or system human; settings: compound 10 μM, 20% O2, 24 hours
Description: The Hep3B cells were seeded at 1×10^4 cells/well to a 24-well cell culture plate and then cultured under normal oxygen (20% O2) for 24 hours. Each of 3 types of compounds (compounds #4, 21, and 35) was mixed at a concentration of 10 μM into RPMI1640 common medium 1. After further culture under normal oxygen (20% O2) for 24 hours, the concentration of HIF-α produced in the medium was measured using Total HIF-1 α Cell-Based ELISA Kit (manufactured by R&D Systems, Inc.). Hep3B cells cultured in the absence of the compound (DMSO added [1%]) (“Control” of FIG. 5) were used as a negative control. Hep3B cells cultured in the presence of HIF activators (FG-4592 [10 μM], DMOG [10 μM], and ciclopirox[10 μM]) (“FG”, “DMOG”, and “Ciclo”, respectively, of FIG. 5) were used as positive controls.

Leigh cells = test: Cell death caused by oxidative stress (BSO) in Leigh syndrome patient fibroblasts; type: cell-based, human; settings: compound 10 μM, 4 days after BSO treatment
Description: In Examples 2 to 7 and Reference Example 1 below, an erythropoietin-producing human hepatocellular carcinoma cell Hep3B (obtained from ATCC [American Type Culture Collection]) was cultured and maintained under conditions of 5% CO2/20% O2 and 37° C. in an RPMI1640 (manufactured by Life Technologies, Inc./GIBCO) medium containing 100 U/mL penicillin (manufactured by Life Technologies, Inc./GIBCO), 100 μg/mL streptomycin (manufactured by Life Technologies, Inc./GIBCO), and 10% fetal bovine serum (FBS) (manufactured by Life Technologies, Inc./GIBCO) (hereinafter, referred to as “RPMI1640 common medium 1”). In Example 15 below, Leigh syndrome patients were subjected to skin biopsy to obtain skin fibroblast cells, which were then primarily cultured under conditions of 5% CO2/20% O2 and 37° C. in a DMEM low glucose (manufactured by Life Technologies, Inc./GIBCO) medium containing 100 U/mL penicillin (manufactured by Life Technologies, Inc./GIBCO), 100 μg/mL streptomycin (manufactured by Life Technologies, Inc./GIBCO), and 1% FBS (manufactured by Life Technologies, Inc./GIBCO) (hereinafter, referred to as “DMEM low glucose common medium”) to isolate cells (Leigh cells). In Example 13 below, a human kidney-derived cell line HK-2 (obtained from ATCC) was cultured and maintained under conditions of 5% CO2/20% O2 and 37° C. in a DMEM/F12 (manufactured by Life Technologies, Inc./GIBCO) medium containing 100 U/mL penicillin (manufactured by Life Technologies, Inc./GIBCO), 100 μg/mL streptomycin (manufactured by Life Technologies, Inc./GIBCO), and 10% fetal bovine serum (manufactured by Life Technologies, Inc./GIBCO) (hereinafter, referred to as “DMEM/F12 common medium”). In Example 14 below, a rat islet of Langerhans-derived cell line ISN-1e (kindly provided by Hisamitsu Ishihara, Nihon University School of Medicine) was cultured and maintained under conditions of 5% CO2/20% O2 and 37° C. in an RPMI1640 (manufactured by Life Technologies, Inc./GIBCO) medium containing 10 mM HEPES (manufactured by Sigma-Aldrich Corp.), 2 mM glutamine (manufactured by Sigma-Aldrich Corp.), 50 μM β-mercaptoethanol (manufactured by Sigma-Aldrich Corp.), 100 U/mL penicillin (manufactured by Life Technologies, Inc./GIBCO), 100 μg/mL streptomycin (manufactured by Life Technologies, Inc./GIBCO), and 10% FBS (manufactured by Life Technologies, Inc./GIBCO) (hereinafter, referred to as “RPMI1640 common medium 2”).
The Leigh cells were seeded at 4×10^4 cells/well to a 24-well cell culture plate and then cultured for 24 hours. The glutathione synthesis inhibitor BSO (L-buthionine sulphoximine) (manufactured by Sigma-Aldrich Corp.) was mixed at […] into a medium. After culture for 24 hours in the presence of BSO, each of 5 types of compounds (compounds #2, 4, 5, 21, and 35) was mixed at 10 μM into the medium. After culture for 4 days in the presence of these 5 types of compounds, the number of live cells was measured using Cell Counting Kit-8 (manufactured by Dojindo Laboratories) to calculate the survival rate of the cells (“BSO+#2”, “BSO+#4”, “BSO+#5”, “BSO+#21”, and “BSO+#35” of FIG. 17). […]

O=C(CC(C(=O)O)c1c[nH]c2ccccc12)c1ccc(F)cc1 (stereo not drawn) [compound #4, 4-(4-Fluorophenyl)-2-(1H-indol-3-yl)-4-oxo-butanoic acid]
cell survival rate compared with cells cultured in the absence of the compound (DMSO) (Hep3B cells; 0.5 μM compound, 24 hours): almost the same | cell survival rate compared with cells cultured using 0.5 μM compound (Hep3B cells; 100 μM compound, 24 hours): approximately 70% | cell survival rate compared with cells cultured using 0.5 μM compound (Hep3B cells; 1, 5, or 10 μM compound, 24 hours): rarely different | cytotoxicity (Hep3B cells; concentration ranging from 0 to 10 μM): hardly exhibit cytotoxicity | HIF-α concentration in the Hep3B cells (HIF-α): increase the HIF-α concentration | cell death of the Leigh cells by BSO (Leigh cells): efficiently suppress the cell death

O=C(O)C(CCCC(F)(F)C(F)(F)F)c1c[nH]c2ccccc12 (stereo not drawn) [compound #21, α-(4,4,5,5,5-Pentafluoro-1-pentyl)-3-indoleacetic acid]
HIF-α concentration in the Hep3B cells (HIF-α): increase the HIF-α concentration | cell death of the Leigh cells by BSO (Leigh cells): efficiently suppress the cell death

O=C(CC(C(=O)O)c1c[nH]c2ccccc12)c1ccc(F)cc1F (stereo not drawn) [compound #5, 4-(2,4-Difluorophenyl)-2-(1H-indol-3-yl)-4-oxo-butanoic acid]
cell death of the Leigh cells by BSO (Leigh cells): efficiently suppress the cell death
